For assay [1], the system named is rats (polytrauma with 40% hemorrhage). Description: HOE140 on tissue wet/dry weight ratio after polytrauma with 40% hemorrhage and lactated Ringer's resuscitation (FIG. 12). The class given is in vivo. Conditions: for wet/dry weight ratio, brain: HOE140 0.4 mg/kg i.v. bolus 45 min after trauma, tissues 1 hour after resuscitation, vehicle 4.735±0.024. The procedure: FIG. 12. The effect of bradykinin receptor antagonist (HOE140) on tissue water content/vascular permeability in the brain, lung and skeletal muscle after polytrauma/hemorrhage and resuscitation of lactate Ringer's fluid (20% of Blood Volume). HOE140 or vehicle were given intravenously in rats (n=4/group) at 45 min after trauma (15 min prior to resuscitation of lactate Ringer's fluid). The tissues were harvested 2 hours after trauma. Values represent as means±SD. *:p<0.05 as compared with vehicle.
HOE140 (0.4 mg/kg) was administrated as a bolus intravenously at 45 min after trauma (15 min prior to Lactated Ringer's fluid resuscitation). At 1 hour after resuscitation, the rats were euthanized and the tissues were harvested for wet weight, and then transferred into the oven at 60° C. for 14 days to be weighed as dry weight. The wet/dry ratio represented the water content of the tissue.
Icatibant (HOE140), which is a selective competitive antagonist at the bradykinin type 2 (B2) receptor, is a synthetic decapeptide with a structure similar to bradykinin, but with 5 nonproteinogenic amino acids. It consists of ten amino acids in the following sequence: H-D-Arg-Arg-Pro-Hyp-Gly-Thi-Ser-D-Tic-Oic-Arg-OH. HOE140 (0.4 mg/kg in lactate Ringer's fluid) was administrated as a bolus intravenously at 45 min after trauma (15 min prior to lactated Ringer's fluid resuscitation (20% of Blood Volume)). At 1 hour after resuscitation, the rats were euthanized and the tissues were harvested for wet weight, and then transferred into the oven at 60° C. for 14 days to be weighed as dry weight. The wet/dry ratio represented the water content of the tissue.

The test system of assay [2] is rats with polytrauma and hemorrhage. Description: TXA in polytrauma/hemorrhage (FIG. 11). Type of assay: in vivo. As to the method:
FIG. 11. The effect of anti-fibrinolytic agent (tranexamic acid; TXA) on polytrauma/hemorrhage. Single dose of TXA (10 mg/kg) given prior to trauma. (FIG. 11A) Prothrombin time. Values represent as means±SEM. *:p<0.05, significant difference between TXA and Vehicle; #:p<0.05, significant difference as compared with baseline. (FIG. 11B) Lung wet/dry weight ratio. TXA was given just before trauma (BT, red), just after trauma (AT, green) and 45 min after the end of trauma (yellow). Values represent as means±SEM. *:p<0.05, significant difference as compared with vehicle. (FIG. 11C) Acute lung injury. TXA given 45 min after trauma (and 15 min prior to resuscitation). Levels of platelet and leukocytes (neutrophils and monocytes) infiltration, and C5a and neutrophil elastase in the lung as compared with FWB. *:p<0.05, significant difference between FWB and FWB/TXA; #:p<0.05, significant difference as compared with Non-R; $:p<0.05, significant difference as compared with Non-R, FWB and FWB/TXA. Values represent as means±SEM. Non-R: Non-Resuscitation; FWB: Fresh Whole Blood; TXA: Tranexamic Acid; AT: After Trauma; BT: Before Trauma.
Briefly, Sprague-Dawley rats (350-450 gram) were anesthetized with isoflurane/100% oxygen through a nosecone and allowed to breathe spontaneously. Cannulas were placed in the left femoral artery and vein for measurement of arterial blood pressure and to obtain vascular access (blood draw and resuscitation and drug administration) respectively. Polytrauma was induced by laparotomy, crush injury to the small intestines, the […], and the right leg skeletal muscle and by fracture of the right femur. In detail, a midline incision was made through the abdominal skin and underlying muscle layers. A 10-cm section of small intestines was isolated just anterior to the cecum and run gently through a clamp covered with silastic tubing with a 2-mm distance between the clamps to cause a gentle crush injury. The right and medial lobes of the liver will receive three crushes to each lobe using the same clamp. The intestines and liver were replaced, and the abdominal incision was closed with sutures in two layers. To fracture the […], a modification of a 3-point impact device was used by dropping six stainless-steel balls (65 g each) stacked together, from 36 inches through a guide tube (1 inch internal diameter) to impact on a rounded aluminum blade resting on the mid-right femur with the right leg resting on two aluminum stands, one under the hip and one under the knee. A large hemostat (5 in tongs) was used to clamp the muscle of the right leg 10 times. The crush injury was intended to cause microvascular damage, as opposed to cutting, chopping, or mincing of the tissue, which would have led to uncontrolled hemorrhage. The polytrauma was performed about 10 min followed immediately by hemorrhage. Blood volume was estimated as 6% of body weight±0.77. The rats were bled to lower mean arterial pressure to 40 mmHg within 5 min and maintained at 40 mmHg until 40% of estimated blood volume is removed. Hemorrhage is usually completed within 30 min. Hemorrhage was then discontinued, and blood pressure and heart rate will be allowed to freely compensate.
TXA was given just before trauma (BT, red), just after trauma (AT, green) and 45 min after the end of trauma (yellow). […] TXA was given 45 min after trauma (15 min prior to resuscitation).

Setting [3] is: TXA 15 min prior to FWB resuscitation at 60 min after trauma.
Setting [4] is: single dose TXA 10 mg/kg prior to trauma.

Entries after “also recorded” stand apart in the source; their conditions may differ.

On to `NC(N)=NCCC[C@@H](N)C(=O)N[C@@H](CCCN=C(N)N)C(=O)N1CCC[C@H]1C(=O)N1C[C@H](O)C[C@H]1C(=O)NCC(=O)N[C@@H](Cc1cccs1)C(=O)N[C@@H](CO)C(=O)N1Cc2ccccc2C[C@@H]1C(=O)N1[C@H](C(=O)N[C@@H](CCCN=C(N)N)C(=O)O)C[C@@H]2CCCC[C@@H]21` [Icatibant, H-D-Arg-Arg-Pro-Hyp-Gly-Thi-Ser-D-Tic-Oic-Arg-OH], for which the “tissue wet/dry weight ratio / tissue water content and vascular permeability” value in assay [1] (HOE140 0.4 mg/kg i.v.) is recorded as “attenuated tissue wet/dry weight ratio”; in assay [1] (HOE140 0.4 mg/kg i.v., 0.4 mg/kg), “attenuated tissue wet/dry weight ratio; also recorded: reduced”. The “wet/dry weight ratio, brain” value in assay [1] (n=4) is on record as 4.674±0.023; in assay [1] (n=4, 0.4 mg/kg), “significantly declined”. The “wet/dry weight ratio, traumatized skeletal muscle” value in assay [1] (HOE140 0.4 mg/kg i.v., n=4, vehicle 4.491±0.112) came to 4.247±0.176. Besides, in assay [1] (HOE140 0.4 mg/kg i.v., n=4, vehicle 4.528±0.112), the “wet/dry weight ratio, intestine” value turned out to be 4.399±0.090.

As for `NC[C@H]1CC[C@H](C(=O)O)CC1` [TXA, tranexamic acid], the “fluid movement into the lung (ALI, lung wet/dry weight ratio)” value in assay [2] (TXA 10 mg/kg just after trauma and 45 min after the end of trauma) is recorded as “reduces fluid movement into the lung”. In assay [2] (setting [3]), the “level of C5a in the lung as compared with FWB” value was “significantly reduced”; the “level of neutrophil elastase in the lung as compared with FWB” value is reported as “significantly reduced”; the “platelet and leukocyte infiltration in the lung as compared with FWB” value is “significantly reduced”. For the same molecule, the circulatory plasmin activity result in assay [2] (current study) is reported as “not significantly changed”. In assay [2] (setting [4]), the “prothrombin time (PT) at 30 min after trauma” value was “delayed elevation of prothrombin time” and the “prothrombin time (PT) at 120 min after trauma” value was “significantly elevated”.
